Reference: publication PMC4388511 (PLoS ONE, 2015)
Read-outs that look alike come from different tables or passages of the source.

Columns and labels:
[1] = biological target: T1, serotonin 5-HT2C receptor (Homo sapiens, UniProt P28335); assay: facilitation of morphine-induced MOP-YFP endocytosis in HEK293 cells co-expressing 5-HT2C, at […]; assay type: cell-based
T1 construct: gene HTR2C; c-myc-5-HT2C-Cerulean

[2] = biological target: T1, serotonin 5-HT2C receptor; assay: as above; assay type: cell-based; remark: listed apart in the source

T1 sequence (P28335 33-458): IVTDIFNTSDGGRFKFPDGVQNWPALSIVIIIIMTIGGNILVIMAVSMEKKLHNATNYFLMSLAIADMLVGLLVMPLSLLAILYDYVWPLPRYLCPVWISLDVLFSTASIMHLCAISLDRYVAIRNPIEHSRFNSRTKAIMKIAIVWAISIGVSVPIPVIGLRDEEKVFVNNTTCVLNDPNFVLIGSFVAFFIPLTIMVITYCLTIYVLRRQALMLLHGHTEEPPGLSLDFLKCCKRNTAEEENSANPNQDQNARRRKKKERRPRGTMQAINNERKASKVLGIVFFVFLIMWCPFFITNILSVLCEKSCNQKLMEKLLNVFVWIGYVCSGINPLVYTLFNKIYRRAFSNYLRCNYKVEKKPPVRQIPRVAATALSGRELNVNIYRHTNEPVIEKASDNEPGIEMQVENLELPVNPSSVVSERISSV
T1 sequence (P35372 whole entry partner): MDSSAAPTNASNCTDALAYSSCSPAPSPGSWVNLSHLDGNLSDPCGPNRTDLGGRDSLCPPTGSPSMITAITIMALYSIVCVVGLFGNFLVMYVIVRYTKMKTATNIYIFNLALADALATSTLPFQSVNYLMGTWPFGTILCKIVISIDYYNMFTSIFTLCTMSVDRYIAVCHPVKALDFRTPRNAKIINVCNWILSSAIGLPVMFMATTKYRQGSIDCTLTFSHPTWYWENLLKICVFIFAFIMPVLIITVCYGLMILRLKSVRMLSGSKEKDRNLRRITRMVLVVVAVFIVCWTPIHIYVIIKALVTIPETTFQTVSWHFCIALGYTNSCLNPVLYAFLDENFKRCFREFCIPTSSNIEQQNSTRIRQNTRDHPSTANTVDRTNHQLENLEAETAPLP

## O=C1Nc2cc(Cl)c(Cl)cc2N2CCNCC12 (centres unmarked) [WAY161503]
[1]
  Emax (no. vesicles/cell): 9.08 ± 1.88 vesicles/cell (Emax, with morphine)

## COc1cc(CC(C)N)c(OC)cc1I (racemic) [DOI]
[2]
  Emax (no. vesicles/cell): 8.18 ± 1.31 vesicles/cell (Emax, with morphine)
